Among the test systems are KM20L2 colon; KM12 colon; SK-OV-3 ovarian; SF-295 CNS; IGROV1 ovarian; HOP-92 NSCLC; DLD-1 colon; RPMI-8226 leukemia; NCI/ADR-RES ovarian; T-47D breast.
Holding throughout (test): growth of human tumour cells (NCI), 48 h

Where “and” joins values, the source holds several entries; their conditions need not be identical. Equal values may be shown once.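 96-well plates; 48 h exposure; 5 concentrations. Endpoints by linear interpolation between flanking doses. Not reached: highest tested concentration assigned. GI50 is the concentration that inhibits growth by half. TGI: concentration producing complete growth inhibition.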

Results on eleven compounds are retold here after PubChem BioAssay (NCI).

As to `CCOC(=O)c1[nH]c(COC(C)=O)c(CCCOC(C)=O)c1CCCOC(C)=O`, the TGI with KM20L2 colon, with KM12 colon, in the test on SK-OV-3 ovarian, in the test with SF-295 CNS, in the test with IGROV1 ovarian and in the test with HOP-92 NSCLC was greater than 100 µM in each case.
On to `CCCCCCCCCc1cc(=O)c2c(O)cccc2o1`, for which the TGI in the test with KM12 colon, in the test on SK-OV-3 ovarian, in the test on SF-295 CNS, in the test with IGROV1 ovarian, in the test on HOP-92 NSCLC and in the test with DLD-1 colon was greater than 100 µM throughout. In the test with RPMI-8226 leukemia, this compound showed a TGI greater than 100 µM.
With `O=C(CCC(=O)Nc1cccc(Cl)c1)CC(=O)c1ccc(Cl)cc1`, the TGI in the test on KM20L2 colon, in the test on KM12 colon, in the test with SK-OV-3 ovarian, in the test with SF-295 CNS, with IGROV1 ovarian and in the test with HOP-92 NSCLC was greater than 100 µM throughout. In the test with RPMI-8226 leukemia, this compound showed a TGI greater than 100 µM.
In the case of `CCOC(=O)N1CCN(C(=O)c2ccc(C(F)(F)F)nc2Nc2cc(Cl)ccc2C)CC1`, the GI50 with NCI/ADR-RES ovarian was 15.4 µM; with KM12 colon, 11.2 µM; in the test on SK-OV-3 ovarian, greater than 100 µM; in the test on SF-295 CNS it was 14.6 µM; with IGROV1 ovarian it was 1.38 µM; with HOP-92 NSCLC, 10.2 µM. The GI50 with T-47D breast was greater than 100 µM; with RPMI-8226 leukemia, 11.4 µM. Further, the TGI in the test on NCI/ADR-RES ovarian is greater than 100 µM; in the test with KM12 colon, 31.2 µM; with SK-OV-3 ovarian it was greater than 100 µM; with SF-295 CNS it was 65.3 µM; in the test on IGROV1 ovarian, 59.7 µM; in the test on HOP-92 NSCLC it was greater than 100 µM. Moreover, the TGI is greater than 100 µM with T-47D breast and 64.8 µM in the test with RPMI-8226 leukemia.
With `COc1ccccc1NC(=O)C1=C(C)NC(C)=C(C(=O)Nc2ccccc2OC)C1c1ccc([N+](=O)[O-])cc1`, the TGI with KM20L2 colon is greater than 100 µM; in the test with KM12 colon, greater than 100 µM; with SK-OV-3 ovarian, greater than 100 µM; with SF-295 CNS it was 55.9 µM; with IGROV1 ovarian it was greater than 100 µM; in the test with DLD-1 colon, greater than 100 µM. The compound also yielded a TGI in the test with RPMI-8226 leukemia greater than 100 µM.
In the case of `COC(=O)[C@@H](NC(=O)[C@@H](OC)[C@@H]1Cc2cc3cc(OC4CC(OC5CC(O)C(O)C(C)O5)C(O)C(C)O4)c(C)c(O)c3c(O)c2C(=O)[C@H]1OC1CC(OC2CC(OC3CC(C)(O)C(O)C(C)O3)C(O)C(C)O2)C(O)C(C)O1)C(C)C` (stereo partly specified), the GI50 with NCI/ADR-RES ovarian is 23.7 µM; in the test with KM12 colon, 0.154 µM; in the test on SK-OV-3 ovarian, 0.271 µM; in the test with SF-295 CNS it was 0.0934 µM; with IGROV1 ovarian, 0.101 µM; in the test with HOP-92 NSCLC, 0.101 µM. Also, the results for the GI50 in the test with T-47D breast and in the test with RPMI-8226 leukemia were 0.202 µM and 0.0918 µM, respectively. For the same compound, the TGI in the test on NCI/ADR-RES ovarian is greater than 32.5 µM; with KM12 colon it was greater than 32.5 µM; in the test on SK-OV-3 ovarian, greater than 32.5 µM; in the test on SF-295 CNS it was 2.11 µM; with IGROV1 ovarian, greater than 32.5 µM; in the test on HOP-92 NSCLC, 1.13 µM. Also, the TGI with T-47D breast was greater than 32.5 µM; with RPMI-8226 leukemia, 0.619 µM.
As to `Fc1ccc(Nc2cc(-n3nnc4ccccc43)nc3ccccc23)cc1`, the GI50 with NCI/ADR-RES ovarian is 56.3 µM; in the test with KM12 colon, greater than 100 µM; in the test on SK-OV-3 ovarian, 8.41 µM; in the test with SF-295 CNS, 13.4 µM; with IGROV1 ovarian, 63.9 µM; in the test with HOP-92 NSCLC, 14.4 µM. For the same compound, the GI50 with RPMI-8226 leukemia is 19.3 µM. Besides, the TGI with NCI/ADR-RES ovarian was greater than 100 µM; with KM12 colon, greater than 100 µM; in the test on SK-OV-3 ovarian, greater than 100 µM; with SF-295 CNS, 41.5 µM; with IGROV1 ovarian it was greater than 100 µM; in the test with HOP-92 NSCLC it was 34 µM. For the same compound, the TGI with T-47D breast and in the test with RPMI-8226 leukemia was greater than 100 µM throughout.
On to `Cc1cc(NC(=O)c2ccc(C)c(Nc3nccc(-c4cccnc4)n3)c2)cc(-n2cnc(C)c2)c1`, for which the GI50 is 7.18 µM in the test with NCI/ADR-RES ovarian; 4.83 µM in the test with KM12 colon; 1.73 µM in the test with SK-OV-3 ovarian; 3.07 µM in the test on SF-295 CNS; 3.93 µM with IGROV1 ovarian; 0.716 µM with HOP-92 NSCLC. The GI50 in the test with T-47D breast was 1.34 µM; in the test with RPMI-8226 leukemia, 6.45 µM. For the same compound, the TGI came out at 23 µM in the test with NCI/ADR-RES ovarian; 14.7 µM in the test on KM12 colon; 4.93 µM with SK-OV-3 ovarian; 12.2 µM with SF-295 CNS; 13.5 µM in the test with IGROV1 ovarian; 2.78 µM with HOP-92 NSCLC. Besides, the TGI in the test with T-47D breast was 3.77 µM; in the test with RPMI-8226 leukemia, 27.6 µM.
As for `Cc1n(Cc2ccc3ccccc3c2)cc[n+]1Cc1ccc2ccccc2c1`, the GI50 is 41.3 µM in the test with NCI/ADR-RES ovarian; 0.592 µM in the test on KM12 colon; 1.81 µM in the test on SK-OV-3 ovarian; 1.83 µM with SF-295 CNS; 0.797 µM in the test with IGROV1 ovarian; 0.673 µM with HOP-92 NSCLC. Also, the GI50 is 0.438 µM in the test with T-47D breast and 0.405 µM in the test with RPMI-8226 leukemia. The TGI was greater than 100 µM with NCI/ADR-RES ovarian; 2.04 µM in the test with KM12 colon; 7.38 µM in the test on SK-OV-3 ovarian; 7.21 µM in the test with SF-295 CNS; 2.87 µM in the test on IGROV1 ovarian; 3.64 µM in the test with HOP-92 NSCLC. Moreover, the TGI worked out at 5.12 µM in the test with T-47D breast and 1.89 µM in the test on RPMI-8226 leukemia.
With `O=C(Nc1cccc(Cl)c1)c1cc2ccccc2cc1O`, the GI50 in the test on NCI/ADR-RES ovarian is 2.62 µM and 2.06 µM; with KM12 colon, 3.17 µM and 2.71 µM; with SK-OV-3 ovarian, 1.23 µM; with SF-295 CNS, 4.11 µM and 13.1 µM; with IGROV1 ovarian, 2.71 µM and 2.06 µM; with HOP-92 NSCLC, 0.41 µM and 0.306 µM. For the same compound, the GI50 was 1.88 µM and 1.73 µM in the test on T-47D breast; 1.52 µM and 0.535 µM in the test on RPMI-8226 leukemia. The TGI with KM12 colon is greater than 100 µM; in the test with SK-OV-3 ovarian, 4.95 µM; with SF-295 CNS, greater than 100 µM; in the test with IGROV1 ovarian it was greater than 100 µM; with HOP-92 NSCLC, 3.66 µM and 0.973 µM; in the test with T-47D breast, 8.92 µM and 6.82 µM.
Turning to `CCN(CC)CCNCC(=O)Oc1ccc(/C=C/C(=O)CC(=O)/C=C/c2ccc(OC(=O)CNCCN(CC)CC)c(OC)c2)cc1OC`, the GI50 with NCI/ADR-RES ovarian is 5.73 µM; with KM12 colon, 3.5 µM; in the test with SK-OV-3 ovarian, 3.71 µM; in the test with SF-295 CNS, 5.55 µM; in the test with IGROV1 ovarian it was 4.04 µM; in the test on HOP-92 NSCLC, 3.93 µM. Also, the figures for the GI50 in the test with T-47D breast and with RPMI-8226 leukemia were 6.1 µM and 1.91 µM, respectively. For the same compound, the TGI in the test on NCI/ADR-RES ovarian is greater than 100 µM; in the test on KM12 colon, 31.6 µM; in the test on SK-OV-3 ovarian, 12.6 µM; in the test on SF-295 CNS, 22.2 µM; in the test with IGROV1 ovarian, 8.94 µM; in the test with HOP-92 NSCLC it was 33.1 µM. The TGI worked out at 31.6 µM with T-47D breast and 6.01 µM with RPMI-8226 leukemia.
